Data: patent US11266643B2, “Triaryl compounds for treatment of PD-L1 diseases” (CHEMOCENTRYX, INC., priority 2019, dated 2022)

Molecular target: human PD-L1 (Homo sapiens (Human), UniProt Q9NZQ7)
Experiment: Enzyme-Linked Immunosorbent Assay (ELISA), PD-1/PD-L1 binding
Details: plate-coated human PD-L1, biotinylated Human PD-1, absorbance at 450 nm
In short: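 Plates coated with […] human PD-L1 overnight at 4° C, blocked, then 1:5 serial compound dilutions added with human PD-1 […] 0.31 μg/mL for 1 h at 37° C. Bound PD-1 detected with streptavidin-HRP and TMB (20 min, 37° C); absorbance read at 450 nm after H2SO4 stop.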

human PD-L1, sequence (Q9NZQ7 19-239): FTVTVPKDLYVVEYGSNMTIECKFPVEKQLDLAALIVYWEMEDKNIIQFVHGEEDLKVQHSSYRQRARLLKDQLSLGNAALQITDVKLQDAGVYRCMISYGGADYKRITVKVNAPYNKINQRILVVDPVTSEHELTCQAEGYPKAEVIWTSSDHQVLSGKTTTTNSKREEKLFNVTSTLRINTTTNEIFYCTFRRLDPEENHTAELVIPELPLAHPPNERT

COc1cc(-c2cccc(-c3cccc(NC(=O)c4cn(C)c(=O)n(C)c4=O)c3C)c2F)cc(F)c1CN[C@H]1CCOC[C@H]1O [Example 2.105]
IC50: < 10 nM

COc1cc(-c2cccc(-c3cccc(NC(=O)c4cn(C)c(=O)n(C)c4=O)c3F)c2Cl)cc(F)c1CN[C@@H]1CCOC[C@@H]1O [Example 2.106]
IC50: < 10 nM

COc1cc(-c2cccc(-c3cccc(NC(=O)c4cn(C)c(=O)n(C)c4=O)c3Cl)c2Cl)cc(F)c1CN[C@@H]1CCC(=O)NC1 [Example 2.107]
IC50: < 10 nM

COc1cc(-c2cccc(-c3cccc(NC(=O)c4cn(C)c(=O)n(C)c4=O)c3Cl)c2Cl)cc(F)c1CNCC(C)(C)C(N)=O [Example 2.108]
IC50: < 10 nM

COc1cc(-c2cccc(-c3cccc(Nc4nccc5nccnc45)c3Cl)c2Cl)cc(F)c1CN1CC(C)(C(=O)O)C1 [Example 2.109]
IC50: < 10 nM

COc1cc(-c2cccc(-c3cccc(Nc4nccc5nccnc45)c3Cl)c2Cl)cc(F)c1CN[C@@H]1COC[C@@H]1O [Example 2.110]
IC50: < 10 nM

COc1cc(-c2cccc(-c3cccc(Nc4nccc5nccnc45)c3C)c2Cl)cc(F)c1CNCC1(O)CC1 [Example 2.111]
IC50: < 10 nM

COc1cc(-c2cccc(-c3cccc(Nc4nccc5nccnc45)c3C)c2Cl)cc(F)c1CNCC(C)(C)O [Example 2.112]
IC50: < 10 nM

COc1cc(-c2cccc(-c3cccc(Nc4nccc5nccnc45)c3C)c2Cl)cc(F)c1CNCC(C)(C)C(N)=O [Example 2.113]
IC50: < 10 nM

COc1cc(-c2cccc(-c3cccc(Nc4nccc5nccnc45)c3C)c2Cl)cc(F)c1CN[C@H]1CCOC[C@H]1O [Example 2.114]
IC50: < 10 nM

COc1cc(-c2cccc(-c3cccc(Nc4nccc5nccnc45)c3C)c2Cl)cc(F)c1CN[C@@H]1COC[C@@H]1O [Example 2.115]
IC50: < 10 nM

COc1cc(-c2cccc(-c3cccc(Nc4nccc5nccnc45)c3C)c2Cl)cc(F)c1CN[C@H]1CCC(=O)NC1 [Example 2.116]
IC50: < 10 nM
